99 compounds from the Kinase Knowledgebase extract (Sharma et al. 2016) can be followed below.

Usually IC50 stands for the concentration that inhibits the measured activity by half. Read a low IC50 as higher potency.

The structures appear in SMILES notation. Where only a bound is given, the exact number is not on record here.

Sequence of MAPK14 (human) (Q16539 whole entry, looked up): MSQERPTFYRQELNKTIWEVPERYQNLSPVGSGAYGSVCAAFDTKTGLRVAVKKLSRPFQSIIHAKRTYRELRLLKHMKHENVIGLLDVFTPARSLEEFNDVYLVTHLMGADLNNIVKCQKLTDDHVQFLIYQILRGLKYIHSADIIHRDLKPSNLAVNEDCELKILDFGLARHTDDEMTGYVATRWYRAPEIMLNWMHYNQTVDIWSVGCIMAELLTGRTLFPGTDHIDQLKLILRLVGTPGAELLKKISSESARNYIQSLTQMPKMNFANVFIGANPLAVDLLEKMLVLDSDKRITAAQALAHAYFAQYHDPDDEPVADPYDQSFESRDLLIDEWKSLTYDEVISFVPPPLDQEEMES

This assay addresses MAPK14 (human) (UniProt Q16539). The experiment in a line: Inhibition of MAPK14 Kinase Activity.
As to `Nc1cc(Cl)c(N2CC(C(=NO)c3ccc(F)cc3F)CCC2=O)c(Cl)c1` (centres undefined), the IC50 is ≤ 10 µM. `Nc1ccc(Cl)c(N2CC(Cc3ccc(F)cc3F)CNC2=O)c1Cl` (centres undefined): the IC50 is ≤ 10 µM. Consider `O=C1OCC(Cc2ccccc2Cl)CN1c1c(Cl)cccc1Cl` (centres undefined), for which the IC50 is ≤ 10 µM. With `O=C1CCC(Cc2cc(Cl)cc(Cl)c2)CN1c1c(Cl)csc1Cl` (centres undefined), the IC50 is ≤ 10 µM. Regarding `O=C1SCC(Cc2ccccc2Cl)CN1c1c(Cl)cccc1Cl` (centres undefined), the IC50 is ≤ 10 µM.

Consider `O=C1CCC(Sc2cccc3ccccc23)CN1c1c(Cl)ccnc1Cl` (centres undefined), for which the IC50 is ≤ 10 µM.

On to `CCNC(=O)NCc1ccccc1CC1CCC(=O)N(c2c(Cl)cccc2Cl)C1` (centres undefined), for which the IC50 was ≤ 10 µM. On to `O=C(O)CNc1cc(Cl)c(N2CC(Cc3ccc(F)cc3F)CCC2=O)c(Cl)c1` (centres undefined), for which the IC50 is ≤ 10 µM. Consider `COc1ccc(CC2CNC(=O)N(c3c(Cl)cccc3Cl)C2)cc1` (centres undefined), for which the IC50 is ≤ 10 µM. Under `CC(=O)Nc1cc(Cl)c(N2CC(Cc3ccc(F)cc3F)SCC2=O)c(Cl)c1` (centres undefined) stands ≤ 10 µM; under `O=C1CCC(Cc2ccccc2Cl)CN1C1C(Cl)CCCC1Cl` (centres undefined), ≤ 10 µM. Under `Cc1ccccc1CC1CNC(=O)N(c2c(Cl)cccc2Cl)C1` (centres undefined) stands ≤ 10 µM. As to `Cc1cccc(C)c1N1CC(/C=C/Cc2ccccc2)(CO)CCC1=O` (centres undefined), the IC50 was ≤ 10 µM.

Regarding `Nc1cc(Cl)c(N2CC(Cc3ccc(F)cc3F)CCC2=O)c(Cl)c1` (centres undefined), the IC50 is ≤ 10 µM. With `O=C1CCC(Cc2ccccc2)CN1c1c(Cl)csc1Cl` (centres undefined), the IC50 was ≤ 10 µM.

`O=C1CCC(Oc2ccccc2F)CN1C1C(Cl)CCCC1Cl` (centres undefined): the IC50 is ≤ 10 µM.

As for `COc1ccccc1SC1CCC(=O)N(c2c(Cl)csc2Cl)C1` (centres undefined), the IC50 is ≤ 10 µM.

For `O=C1CCC(Sc2ccc(F)cc2)CN1c1c(Cl)csc1Cl` (centres undefined), the IC50 was ≤ 10 µM. Under `CN1CCN(c2cc(Cl)c(N3CC(Cc4ccc(F)cc4F)CCC3=O)c(Cl)c2)CC1` (centres undefined) stands ≤ 10 µM; under `O=C1CCC(Sc2ccc3ccccc3c2)CN1c1c(Cl)csc1Cl` (centres undefined), ≤ 10 µM. Under `O=C1CCC(Oc2cccc3ccccc23)CN1c1c(Cl)cccc1Cl` (centres undefined) stands ≤ 10 µM; under `CC(=O)Nc1sc(Cl)c(N2CC(Sc3ccc(F)cc3F)CCC2=O)c1Cl` (centres undefined), ≤ 10 µM; under `Nc1cc(Cl)c(N2CC(Cc3ccc(F)cc3F)OCC2=O)c(Cl)c1` (centres undefined), ≤ 10 µM. `O=C1CCC(Oc2cc(Cl)cc(Cl)c2)CN1c1c(Cl)csc1Cl` (centres undefined): the IC50 was ≤ 10 µM. In the case of `O=C1CCC(Sc2ccc(F)cc2F)CN1c1c(Cl)cc(O)nc1Cl` (centres undefined), the IC50 is ≤ 10 µM. On to `O=C1CCC(Oc2ccccc2)CN1c1c(Cl)csc1Cl` (centres undefined), for which the IC50 is ≤ 10 µM. Under `CN(C)Cc1cc(Cl)c(N2CC(Cc3ccc(F)cc3F)CCC2=O)c(Cl)c1` (centres undefined) stands ≤ 10 µM; under `O=C(N[C@H]1C[C@H](Cc2ccc(F)cc2F)CN(c2c(Cl)cccc2Cl)C1=O)OCc1ccccc1`, ≤ 10 µM; under `O=C1CCC(Oc2ccccc2F)CN1c1c(Cl)cncc1Cl` (centres undefined), ≤ 20 µM. Under `CNC1CC(Cl)C(N2CC(Oc3ccc(F)cc3F)CCC2=O)C(Cl)C1` (centres undefined) stands ≤ 10 µM; under `CS(=O)(=O)N1CCC(Nc2cc(Cl)c(N3CC(Cc4ccc(F)cc4F)CCC3=O)c(Cl)c2)CC1` (centres undefined), ≤ 10 µM. Consider `CC(=O)NC1CCC(Cl)C(N2CC(Cc3ccc(F)cc3F)CCC2=O)C1Cl` (centres undefined), for which the IC50 is ≤ 10 µM.

Turning to `O=C1SCC(Cc2ccccc2F)CN1c1c(Cl)cccc1Cl` (centres undefined), the IC50 was ≤ 10 µM.

As to `Cc1ccccc1SC1CCC(=O)N(c2c(Cl)cncc2Cl)C1` (centres undefined), the IC50 is ≤ 10 µM. On to `O=C1CCC(Sc2ccc(Cl)cc2Cl)CN1c1c(Cl)cncc1Cl` (centres undefined), for which the IC50 is ≤ 10 µM. Consider `O=C1CCC(Sc2ccc(F)cc2F)CN1C1C(Cl)CC(CO)CC1Cl` (centres undefined), for which the IC50 was ≤ 10 µM.

`O=C(NCc1ccccc1)NCc1ccccc1CC1CCC(=O)N(c2c(Cl)cccc2Cl)C1` (centres undefined): the IC50 is ≤ 10 µM. Under `CNc1cc(Cl)c(N2CC(Cc3ccc(F)cc3F)CSC2=O)c(Cl)c1` (centres undefined) stands ≤ 10 µM; under `O=C1CCC(Sc2ccc(Cl)cc2)CN1c1c(Cl)cncc1Cl` (centres undefined), ≤ 10 µM; under `O=C1CCC(Sc2ccccc2)CN1c1c(Cl)csc1Cl` (centres undefined), ≤ 10 µM. Take `O=C1CCC(Sc2ccc(F)cc2F)CN1c1c(Cl)cncc1Cl` (centres undefined): the half-maximal inhibitory concentration (IC50) was ≤ 10 µM.

For the compound `Nc1ccc(Cl)c(N2CC(Sc3ccc(F)cc3F)CCC2=O)c1Cl` (centres undefined), the IC50 was ≤ 10 µM. Under `O=C1CCC(Oc2ccccc2F)CN1c1c(Cl)csc1Cl` (centres undefined) stands ≤ 10 µM; under `O=C1CCC(Oc2ccc(Cl)cc2)CN1c1c(Cl)cccc1Cl` (centres undefined), ≤ 10 µM; under `O=C1OCC(Cc2ccc(F)cc2F)CN1c1c(Cl)ccc(O)c1Cl` (centres undefined), ≤ 10 µM. Under `COc1ccc(OC2CCC(=O)N(C3C(Cl)CCCC3Cl)C2)cc1` (centres undefined) stands ≤ 10 µM; under `COC(=O)Nc1cc(Cl)c(N2CC(Cc3ccc(F)cc3F)CCC2=O)c(Cl)c1` (centres undefined), ≤ 10 µM.

As to `O=C1CCC(Sc2ccc(F)cc2F)CN1c1c(Cl)cnc(CO)c1Cl` (centres undefined), the IC50 was ≤ 10 µM. Under `COCC1CC(Cc2ccc(F)cc2F)CN(c2c(Cl)cccc2Cl)C1=O` (centres undefined) stands ≤ 10 µM; under `O=C1SCC(Cc2ccc(F)cc2)CN1c1c(Cl)cccc1Cl` (centres undefined), ≤ 10 µM.

Regarding `O=C1COC(Cc2ccccc2Cl)CN1c1c(Cl)cccc1Cl` (centres undefined), the IC50 was ≤ 10 µM. Under `O=C1CCC(Cc2ccccc2F)CN1c1c(Cl)cncc1Cl` (centres undefined) stands ≤ 10 µM. On to `CC(C)(C)OC(=O)N1CCC(Nc2cc(Cl)c(N3CC(Cc4ccc(F)cc4F)CCC3=O)c(Cl)c2)CC1` (centres undefined), for which the IC50 was ≤ 10 µM. Under `CC(=O)Nc1cnc(Cl)c(N2CC(Sc3ccc(F)cc3F)CCC2=O)c1Cl` (centres undefined) stands ≤ 10 µM; under `O=C1OCC(Cc2ccc(Cl)cc2)CN1c1c(Cl)cccc1Cl` (centres undefined), ≤ 10 µM; under `CCOC(=O)CNc1ccc(Cl)c(N2CC(Cc3ccc(F)cc3F)CCC2=O)c1` (centres undefined), ≤ 10 µM. In the case of `COc1ccc(SC2CCC(=O)N(c3c(Cl)csc3Cl)C2)cc1` (centres undefined), the IC50 is ≤ 10 µM. Under `O=C1CCC(Oc2cc(F)cc(F)c2)CN1C1C(Cl)CCCC1Cl` (centres undefined) stands ≤ 10 µM. Under `O=C1CCC(Sc2ccc(Cl)cc2Cl)CN1c1c(Cl)cccc1Cl` (centres undefined) stands ≤ 10 µM; under `COc1ccccc1CC1CN(c2c(Cl)cccc2Cl)C(=O)CS1` (centres undefined), ≤ 10 µM. Under `Cc1cc(C(=O)O)cc(C)c1N1CC(Cc2ccc(F)cc2F)CNC1=O` (centres undefined) stands ≤ 10 µM; under `O=C1CCC(Oc2ccc(F)cc2F)CN1c1c(Cl)cc(O)nc1Cl` (centres undefined), ≤ 10 µM.

Take `CNc1ccc(Cl)c(N2CC(Cc3ccc(F)cc3F)CSC2=O)c1Cl` (centres undefined): the IC50 is ≤ 10 µM. Under `O=C1CCC(Cc2ccc(F)cc2F)CN1c1c(Cl)ccnc1Cl` (centres undefined) stands ≤ 10 µM; under `Cc1cccc(NC(=O)NCc2ccccc2CC2CCC(=O)N(c3c(Cl)cccc3Cl)C2)c1` (centres undefined), ≤ 10 µM; under `O=C1CCC(Cc2ccc(Cl)cc2Cl)CN1c1c(Cl)ccnc1Cl` (centres undefined), ≤ 10 µM. Turning to `O=C1CCC(Sc2cc(F)cc(F)c2)CN1c1c(Cl)ccnc1Cl` (centres undefined), the IC50 was ≤ 10 µM. Under `O=C1COC(Cc2ccccc2F)CN1c1c(Cl)cccc1Cl` (centres undefined) stands ≤ 10 µM; under `O=C1CCC(Sc2cccc3ccccc23)CN1C1C(Cl)CCCC1Cl` (centres undefined), ≤ 10 µM. Under `O=C(CNc1cc(Cl)c(N2CC(Cc3ccc(F)cc3F)CCC2=O)c(Cl)c1)NOCc1ccccc1` (centres undefined) stands ≤ 10 µM; under `Cc1ccccc1SC1CCC(=O)N(c2c(Cl)ccnc2Cl)C1` (centres undefined), ≤ 10 µM; under `O=C1CCC(Sc2ccc(Cl)cc2Cl)CN1c1c(Cl)csc1Cl` (centres undefined), ≤ 10 µM. For the compound `O=C1CCC(Sc2cc(Cl)cc(Cl)c2)CN1c1c(Cl)ccnc1Cl` (centres undefined), the IC50 was ≤ 10 µM. Under `COc1ccccc1OC1CCC(=O)N(c2c(Cl)cccc2Cl)C1` (centres undefined) stands ≤ 10 µM; under `CNc1cc(Cl)c(N2CC(Cc3ccc(F)cc3F)SCC2=O)c(Cl)c1` (centres undefined), ≤ 10 µM. Under `Nc1cnc(Cl)c(N2CC(Sc3ccc(F)cc3F)CCC2=O)c1Cl` (centres undefined) stands ≤ 10 µM; under `CC(=O)Nc1ccc(Cl)c(N2CC(Cc3ccc(F)cc3F)OCC2=O)c1Cl` (centres undefined), ≤ 10 µM; under `O=C1CCC(Oc2cc(Cl)cc(Cl)c2)CN1C1C(Cl)CCCC1Cl` (centres undefined), ≤ 10 µM. Under `O=C1CSC(Cc2ccc3ccccc3c2)CN1c1c(Cl)cccc1Cl` (centres undefined) stands ≤ 10 µM; under `O=C1CCC(Cc2ccc(F)cc2F)CN1c1c(Cl)cc(C#CCCO)cc1Cl` (centres undefined), ≤ 10 µM; under `C[C@@H]1C[C@H](Cc2ccc(F)cc2F)CN(c2c(Cl)cc([N+](=O)[O-])cc2Cl)C1=O`, ≤ 10 µM. In the case of `Cc1cc(C(=O)N2CCN(C)CC2)cc(C)c1N1CC(Cc2ccc(F)cc2F)CCC1=O` (centres undefined), the half-maximal inhibitory concentration (IC50) was ≤ 10 µM. Under `Cc1ccc(CC2CCC(=O)N(C3C(Cl)CCCC3Cl)C2)cc1` (centres undefined) stands ≤ 10 µM; under `CN1CCN(Cc2cc(Cl)c(N3CC(Cc4ccc(F)cc4F)CCC3=O)c(Cl)c2)CC1` (centres undefined), ≤ 10 µM; under `COc1ccccc1SC1CCC(=O)N(C2C(Cl)CCCC2Cl)C1` (centres undefined), ≤ 10 µM. Consider `O=C(Cc1ccccc1)Nc1ccc(Cl)c(N2CC(Cc3ccc(F)cc3F)CNC2=O)c1Cl` (centres undefined), for which the IC50 is ≤ 10 µM. Under `N#C/C=C/c1cc(Cl)c(N2CC(Cc3ccc(F)cc3F)CCC2=O)c(Cl)c1` (centres undefined) stands ≤ 10 µM.

For the compound `O=C1CCC(Cc2cc(F)cc(F)c2)CN1c1c(Cl)csc1Cl` (centres undefined), the IC50 is ≤ 10 µM.

For the compound `O=C1CCC(Oc2ccc3ccccc3c2)CN1c1c(Cl)csc1Cl` (centres undefined), the IC50 was ≤ 10 µM.

For the compound `CNC(=O)c1cc(C)c(N2CC(Cc3ccc(F)cc3F)CCC2=O)c(C)c1` (centres undefined), the IC50 is ≤ 10 µM. Under `Cn1nc(C(C)(C)C)cc1NC(=O)CCc1ccccc1CC1CCC(=O)N(c2c(Cl)cccc2Cl)C1` (centres undefined) stands ≤ 10 µM. In the case of `CNc1ccc(Cl)c(N2CC(Cc3ccc(F)cc3F)COC2=O)c1Cl` (centres undefined), the IC50 was ≤ 10 µM. Take `CC(=O)NC1CCC(Cl)C(N2CC(Sc3ccc(F)cc3F)CCC2=O)C1Cl` (centres undefined): the IC50 is ≤ 10 µM.

For `Cc1cccc(C)c1N1CC(CCCc2ccccc2)CCC1=O` (centres undefined), the IC50 is ≤ 10 µM. With `O=C1OCC(Cc2ccc(F)cc2F)CN1c1c(Cl)cc(CO)cc1Cl` (centres undefined), the IC50 is ≤ 10 µM. As for `O=C1CCC(Cc2ccc(F)cc2F)CN1C1C(Cl)CCC(O)C1Cl` (centres undefined), the IC50 was ≤ 10 µM.

For the compound `Cc1ccc(SC2CCC(=O)N(c3c(Cl)ccnc3Cl)C2)c(C)c1` (centres undefined), the 50% inhibitory concentration (IC50) was ≤ 10 µM. Under `Cc1cc(C)cc(CC2CN(C)C(=O)N(c3c(Cl)cccc3Cl)C2)c1` (centres undefined) stands ≤ 10 µM; under `COc1ccc(CC2CCC(=O)N(c3c(Cl)ccnc3Cl)C2)cc1` (centres undefined), ≤ 10 µM.
